Results on 21 molecules are retold here after patent US12552772B2, “2-pyrazole anilines and related analogs for inhibiting YAP/TAZ-TEAD” (KATHOLIEKE UNIVERSITEIT LEUVEN, priority 2021, dated 2026).

Assay type in all cases: cell-based
The subject of experiment [1] is YAP/TAZ-TEAD transcription. The experiment in a line: Reporter gene assay for measuring the inhibition of YAP/TAZ-TEAD transcription (TEAD-responsive element luciferase reporter in Hek293T cells). As to conditions: Homo sapiens, HEK-293T, 24 hours incubation. In outline: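 Percent inhibition, scaled between vehicle (0%) and a positive control inhibitor (100%), came from SteadyLite luciferase signal after 24 h compound exposure at 37 °C/5% CO2. Cells: Hek293T transiently carrying a TEAD-responsive luciferase reporter; EC50 derived.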

The next experiment has as its system NCI-H226. As to the kind of experiment: Mesothelioma cell line proliferation assay (ATPlite), NCI-H226. As to conditions: Homo sapiens, 144 h; NCI-H226 cells, 6 days, ATPlite cell viability. On the procedure:
(§1) Mesothelioma cell lines, NCI-H226 and NCI-H2052 (all sourced from the ATCC cell culture collection) are plated in 96-well plates (Corning® 96 Well White Polystyrene Microplate clear flat bottom, white polystyrene (TC-Treated)), at 1500 cells/well in full medium (RPMI 1640 ATCC modification with L-glutamine, HEPES, Phenol Red, Sodium Pyruvate, High glucose, Low sodium bicarbonate and 10% fetal bovine serum). Cells are incubated overnight at 37° C. in an incubator with 5% CO2. Then compounds, dissolved in DMSO, are added in dose-response. Cells are incubated with compound dilutions for another 6 days at 37° C. in an incubator with 5% CO2. Cell viability is quantitated using the ATPlite kit (Perkin-Elmer) and the luminescence is read-out using an Envision instrument (Perkin-Elmer). The amount of relative light units produced using the ATPlite kit is used to calculated percent of inhibition.
(§2) The activities of example compounds tested are depicted in the table below. The activity ranges A, B and C refer to EC50 values in the mesothelioma cell line proliferation assay as described as follows: “A”: EC50<1 μM; “B”: 1 μM s EC50≤10 μM and “C”: EC50>10 μM. NT: not tested.
Background: ATP-based viability assays read luminescence as a measure of living cells.

A further experiment deals with NCI-H2052. As to the kind of experiment: Mesothelioma cell line proliferation assay (ATPlite), NCI-H2052. Particulars: Homo sapiens, NCI-H2052, 144 h, NCI-H2052 cells, 6 days, ATPlite cell viability. The protocol:
as §1, §2

Broadly, the EC50 is the concentration at which the effect is half-maximal. The low end stands for greater potency, the high end for weaker potency. With `C=CC(=O)NCc1ccc(-c2ccc(F)cc2F)cc1-c1ccn(C)n1` [compound 145, N-((2′,4′-difluoro-3-(1-methyl-1H-pyrazol-3-yl)-[1,1′-biphenyl]-4-yl)methyl)acrylamide], the EC50 (in experiment [1]; in the experiment with NCI-H226; in the experiment with NCI-H2052) was below 1000 nM each time.
As for `C=CC(=O)NCc1ccc(-c2ccc(F)cc2)cc1-c1ccn(CCOC)n1` [compound 149, N-((4′-fluoro-3-(1-(2-methoxyethyl)-1H-pyrazol-3-yl)-[1,1′-biphenyl]-4-yl)methyl)acrylamide], the EC50 (in experiment [1]; with NCI-H226; in the experiment on NCI-H2052) was below 1000 nM each time.
`C=CC(=O)NCc1ccc(-c2ccc(F)cc2)cc1-c1ccn(CC2CC2)n1` [compound 153, N-((3-(1-(cyclopropylmethyl)-1H-pyrazol-3-yl)-4′-fluoro-[1,1′-biphenyl]-4-yl)methyl)acrylamide]: the EC50 (in experiment [1]; in the experiment on NCI-H226; with NCI-H2052) was below 1000 nM in each case.
On to `C=CC(=O)NCc1ccc(-c2ccc(Cl)cc2)cc1-c1ccn(C)n1` [compound 157, N-((4′-chloro-3-(1-methyl-1H-pyrazol-3-yl)-[1,1′-biphenyl]-4-yl)methyl)acrylamide], for which the EC50 (in experiment [1]; in the experiment on NCI-H226; with NCI-H2052) was below 1000 nM in each case.
As for `C=CC(=O)NCc1ccc(-c2ccc(F)cc2)cc1-c1cc[nH]n1` [compound 161, N-((4′-fluoro-3-(1H-pyrazol-3-yl)-[1,1′-biphenyl]-4-yl)methyl)acrylamide], the EC50 (in experiment [1]; in the experiment with NCI-H226; in the experiment with NCI-H2052) was below 1000 nM each time.
In the case of `C=CC(=O)NCc1ccc(-c2ccc(F)cc2)cc1-c1cnn(C)c1` [compound 162, N-((4′-fluoro-3-(1-methyl-1H-pyrazol-4-yl)-[1,1′-biphenyl]-4-yl)methyl)acrylamide], the EC50 (in experiment [1]; with NCI-H226; with NCI-H2052) was below 1000 nM each time.
Turning to `C=CC(=O)NCc1ccc(-c2ccc(F)cc2)cc1-c1ccccn1` [compound 165, N-((4′-fluoro-3-(pyridin-2-yl)-[1,1′-biphenyl]-4-yl)methyl)acrylamide], the EC50 (in experiment [1]; in the experiment with NCI-H226; in the experiment with NCI-H2052) was below 1000 nM each time.
In the case of `C=CC(=O)NCc1ccc(-c2ccc(F)cc2)cc1-c1ccn(C2CC2)n1` [compound 166, N-((3-(1-cyclopropyl-1H-pyrazol-3-yl)-4′-fluoro-[1,1′-biphenyl]-4-yl)methyl)acrylamide], the EC50 (in experiment [1]; in the experiment with NCI-H226; in the experiment on NCI-H2052) was below 1000 nM each time.
Turning to `C=CC(=O)NCc1ccc(-c2ccc(C(F)(F)F)cc2)cc1-c1ccn(C2CC2)n1` [compound 167, N-((3-(1-cyclopropyl-1H-pyrazol-3-yl)-4′-(trifluoromethyl)-[1,1′-biphenyl]-4-yl)methyl)acrylamide], the EC50 was below 1000 nM in experiment [1], 1000 to 10000 nM in the experiment with NCI-H226 and below 1000 nM with NCI-H2052.
In the case of `C=CC(=O)NCc1cc(-c2ccc(F)cc2)cc(-c2ccn(C3CC3)n2)c1` [compound 169, N-((5-(1-cyclopropyl-1H-pyrazol-3-yl)-4′-fluoro[1,1′-biphenyl]-3-yl)methyl)acrylamide], the EC50 in experiment [1] was below 1000 nM; in the experiment on NCI-H226 it was below 1000 nM; in the experiment on NCI-H2052, 1000 to 10000 nM.
Regarding `C=CC(=O)NCc1ccc(-c2ccc(F)cc2)cc1-c1ccn(C(F)F)n1` [compound 170, N-((3-(1-(difluoromethyl)-1H-pyrazol-3-yl)-4′-fluoro-[1,1′-biphenyl]-4-yl)methyl)acrylamide], the EC50 (in experiment [1]; in the experiment with NCI-H226; in the experiment on NCI-H2052) was below 1000 nM each time.
For the molecule `C=CC(=O)NCc1ccc(-c2ccc(C(F)(F)F)cc2)cc1-c1ccn(C(F)F)n1` [compound 172, N-((3-(1-(difluoromethyl)-1H-pyrazol-3-yl)-4′-(trifluoromethyl)-[1,1′-biphenyl]-4-yl)methyl)acrylamide], the 50% effective concentration (EC50) (in experiment [1]; in the experiment on NCI-H226; with NCI-H2052) was below 1000 nM throughout.
Turning to `C=CC(=O)NCc1cc(-c2ccc(F)cc2)cc(-c2ccn(C(F)F)n2)c1` [compound 174, N-((5-(1-(difluoromethyl)-1H-pyrazol-3-yl)-4′-fluoro-[1,1′-biphenyl]-3-yl)methyl)acrylamide], the EC50 in experiment [1] was below 1000 nM; in the experiment with NCI-H226 it was below 1000 nM; in the experiment on NCI-H2052, 1000 to 10000 nM.
In the case of `C=CC(=O)NCc1ccc(-c2ccc(F)cc2)cc1-c1cc(C)n(C)n1` [compound 176, N-((3-(1,5-dimethyl-1H-pyrazol-3-yl)-4′-fluoro-[1,1′-biphenyl]-4-yl)methyl)acrylamide], the EC50 (in experiment [1]; with NCI-H226; in the experiment with NCI-H2052) was below 1000 nM in each case.
As to `C=C(F)C(=O)NCc1ccc(-c2ccc(C(F)(F)F)cc2)cc1-c1ccn(C)n1` [compound 177, 2-fluoro-N-((3-(1-methyl-1H-pyrazol-3-yl)-4′-(trifluoromethyl)-[1,1′-biphenyl]-4-yl)methyl)acrylamide], the EC50 (in experiment [1]; in the experiment with NCI-H226; with NCI-H2052) was below 1000 nM throughout.
In the case of `C=CC(=O)NCc1ccc([C@H]2CC[C@@H](C(F)(F)F)CC2)cc1-c1ccn(C)n1` [compound 179, cis-N-(2-(1-methyl-1H-pyrazol-3-yl)-4-(4-(trifluoromethyl)cyclohexyl)benzyl)acrylamide], the EC50 (in experiment [1]; with NCI-H226; with NCI-H2052) was below 1000 nM throughout.
With `C=CC(=O)NCc1ccc(C2CCC(F)(F)CC2)cc1-c1ccn(C)n1` [compound 180, N-(4-(4,4-difluorocyclohexyl)-2-(1-methyl-1H-pyrazol-3-yl)benzyl)acrylamide], the EC50 (in experiment [1]; in the experiment on NCI-H226; with NCI-H2052) was below 1000 nM in each case.
With `C=CC(=O)NCc1ccc(N2CCC(F)(F)CC2)cc1-c1ccn(C)n1` [compound 182, N-(4-(4,4-difluoropiperidin-1-yl)-2-(1-methyl-1H-pyrazol-3-yl)benzyl)acrylamide], the EC50 (in experiment [1]; in the experiment with NCI-H226; in the experiment with NCI-H2052) was below 1000 nM in each case.
Regarding `C=CC(=O)NCc1ccc(-c2ccc(F)cc2)cc1-c1cn(C)nn1` [compound 184, N-((4′-fluoro-3-(1-methyl-1H-1,2,3-triazol-4-yl)-[1,1′-biphenyl]-4-yl)methyl)acrylamide], the EC50 (in experiment [1]; with NCI-H226; in the experiment on NCI-H2052) was below 1000 nM each time.
Take `C=CC(=O)NCc1ccc(-c2ccc(F)cc2)cc1-c1cn(C(F)F)nn1` [compound 185, N-((3-(1-(difluoromethyl)-1H-1,2,3-triazol-4-yl)-4′-fluoro-[1,1′-biphenyl]-4-yl)methyl)acrylamide]: the EC50 in experiment [1] is below 1000 nM; with NCI-H226, below 1000 nM; with NCI-H2052 it was 1000 to 10000 nM.
Take `C=CC(=O)NCc1ccc(-c2ccc(F)cc2)cc1-c1cnn(C)n1` [compound 187, N-((4′-fluoro-3-(2-methyl-2H-1,2,3-triazol-4-yl)-[1,1′-biphenyl]-4-yl)methyl)acrylamide]: the EC50 in experiment [1] is below 1000 nM; in the experiment with NCI-H226, below 1000 nM; with NCI-H2052, 1000 to 10000 nM.
